# Reference: patent US20240225985A1, “BRIGHTENING COMPOSITIONS AND METHODS OF USE” (Alastin Skincare, Inc., priority 2021, published 2024)
# Experiments:
# [1] = tested on: facial skin; test: Clinical study, investigator assessment of tolerability (erythema, dryness, peeling); assay type: in vivo, human
# Description: (§1) Participants underwent up to 8 study visits: screening, baseline, and 3 follow-up visits in the main study, and a 12-week extension study extended to participants at the week 12 follow up visit, which included an additional 3 follow-up visits to be conducted over 12 weeks: week 16, 20, and a final visit at week 24. At the initial screening visit, participants were consented prior to any study procedures. Medical/aesthetic history, concomitant medications, and study eligibility were collected and assessed. The following procedures were performed at Baseline: Investigator assessments, photography, Optical Coherence Tomography (OCT) imaging of the skin (only at select sites). […] Participants were asked to return to the office for follow-up visits at 4, 8, and 12 weeks. […] Participants randomized to the topical study product continued use of the product throughout the duration of the study, along with the study provided cleanser and sunscreen to apply to their facial skin as previously instructed.
# [2] = tested on: facial skin; conditions: human, in vivo, 12 weeks
# Description: Adverse events as assessed by investigators is an extremely important parameter for determining potential shortcomings of a product for treatment.
# [3] = tested on: facial skin; test: Clinical study, participant assessment of tolerability (burning/stinging, tingling, itching); assay type: in vivo, human
# Description: as §1
# [4] = tested on: facial dyschromia and/or hyperpigmentation; test: Clinical study, investigator mMASI scoring; assay type: in vivo, human
# Description: as §1
# (§2) The products were supplied in a kit with a number and then dispensed according to the baseline grading of dyschromia.
# Investigator mMASI scoring was performed using a modified MASI scoring method depicted in FIG. 13.
# [5] = tested on: facial dyschromia and/or hyperpigmentation; test: Clinical study, investigator assessment of facial skin severity; assay type: in vivo, human; conditions: scale 0-9
# Description: Forty-three (43) participants (male and female; skin types I-IV; mean age 49.2) with mild to severe facial dyschromia and/or hyperpigmentation on the face were enrolled. Participants provided consent and agreed to limit their sun exposure for the duration of the study. Participants were required to comply with the skincare regimen and return for follow-up visits. This study population was deemed a large enough sample size for safety and efficacy. Only eligible participants were selected to participate. Participants that were enrolled and completed the 3-month study for this protocol were eligible to participate in the 3-month extension study.
# as §1, §2
# As summarized in Table 15, investigator assessment of facial skin severity considered the overall appearance of dyschromia, skin tone (clarity and evenness), radiance, and skin texture, on the following scale: 0=none; 1-3=mild; 4-6=moderate; 7-9=severe.
# [6] = tested on: facial dyschromia and/or hyperpigmentation; test: Clinical study, participant questionnaire; assay type: in vivo, human
# Description: as §1
# [7] = tested on: hTERT-immortalized dermal melanocytes; test: Melanocyte assay, daily inspection of cell morphology; assay type: cell-based, human; conditions: both concentrations of Table 11; five-day dosing period
# Procedure: Once the melanocytes were 100% confluent in 6-well plates, the melanocyte growth media was removed and the melanocytes were treated with media containing the above compounds; duplicate wells for each compound/concentration listed above. The duplicate vehicle control wells were fed melanocyte growth media only or melanocyte growth media with DMSO (10 uL per 10 mL melanocyte growth media).
# The cells were fed the appropriate media for the next 5 days. Each day, the cells were inspected for morphology.
# [8] = change week 0 to week 12, N = 44 study product, N = 42 HQ4%
# [9] = week 0 (baseline), N = 44 study product, N = 42 HQ4%
# [10] = week 12, N = 44 study product, N = 42 HQ4%
structure (smiles),measurement,setting,value
"Oc1ccc(O)cc1 [HQ 4%, Hydroquinone]","Dryness, percent of participants",[1]; Week 4,13.6%
same,"Erythema, percent of participants",[1]; Week 4,23%
same,"Peeling, percent of participants",[1]; Week 4,13.6%
same,"Dryness, percent of participants",[1]; Week 8,14%
same,"Erythema, percent of participants",[1]; Week 8,14%
same,"Peeling, number of participants and grade",[1]; Week 8,1 mild
same,"Peeling, percent of participants",[1]; Week 8,4.7%
same,"Dryness, number of participants and grade",[1]; Week 12,0
same,"Erythema, number of participants and grade",[1]; Week 12,4 minimal
same,"Erythema, percent of participants",[1]; Week 12,19%
same,"Peeling, number of participants and grade",[1]; Week 12,0
same,"adverse events, percent of population",[2],23.8%
same,total number of adverse events reported,[2],5
same,"Burning/Stinging, number of participants and grade",[3]; Week 4,6 minimal
same,"Burning/Stinging, percent of participants",[3]; Week 4,27%
same,"Itching, percent of participants",[3]; Week 4,36%
same,"Tingling, percent of participants",[3]; Week 4,18%
same,"Burning/Stinging, percent of participants",[3]; Week 8,9.5%
same,"Itching, number of participants and grade",[3]; Week 8,1 minimal
same,"Itching, percent of participants",[3]; Week 8,4.7%
same,"Tingling, number of participants and grade",[3]; Week 8,1 mild
same,"Tingling, percent of participants",[3]; Week 8,4.7%
same,"Burning/Stinging, number of participants and grade",[3]; Week 12,2 minimal
same,"Burning/Stinging, percent of participants",[3]; Week 12,9.5%
same,"Itching, percent of participants",[3]; Week 12,9.5%
same,"Tingling, number of participants and grade",[3]; Week 12,1 minimal
same,"Tingling, percent of participants",[3]; Week 12,4.7%
same,participant-reported irritation versus the study product population,[3]; summary of Table 19,irritation is increased across all parameters
same,"Left mMASI, mean",[4]; Week 12,1.8
same,"Left malar, mean",[4]; Week 12,6
same,"Right mMASI, mean",[4]; Week 12,1.9
same,"Right malar, mean",[4]; Week 12,6.3
same,"Total mMASI, mean",[4]; Week 12,5.2
same,"Left mMASI, mean change",[4]; change week 0 to week 12,0.3
same,"Left malar, mean change",[4]; change week 0 to week 12,1.1
same,"Right mMASI, mean change",[4]; change week 0 to week 12,0.3
same,"Right malar, mean change",[4]; change week 0 to week 12,1.1
same,"Total mMASI, mean change",[4]; change week 0 to week 12,1
same,"Combined right and left mMASI, mean change",[4]; [8],0.3
same,"Combined right and left malar, mean change",[4]; [8],1.1
same,improvement in mMASI scoring at 12 weeks versus baseline,[4]; summary of Table 17,no such improvement
same,"Left mMASI, mean",[4]; week 0 (baseline),2.2
same,"Left malar, mean",[4]; week 0 (baseline),7.2
same,"Right mMASI, mean",[4]; week 0 (baseline),2.2
same,"Right malar, mean",[4]; week 0 (baseline),7.4
same,"Total mMASI, mean",[4]; week 0 (baseline),6.1
same,"Combined right and left mMASI, mean",[4]; [9],2.2
same,"Combined right and left malar, mean",[4]; [9],7.3
same,"Combined right and left mMASI, mean",[4]; [10],1.9
same,"Combined right and left malar, mean",[4]; [10],6.2
same,"Dyschromia, investigator score, mean change",[5]; change week 0 to week 12,0.9
same,"Radiance, investigator score, mean change",[5]; change week 0 to week 12,0.3
same,"Skin tone, investigator score, mean change",[5]; change week 0 to week 12,0.9
same,"Texture, investigator score, mean change",[5]; change week 0 to week 12,0
same,"Dyschromia, investigator score, mean",[5]; week 0 (baseline),5.7
same,"Radiance, investigator score, mean",[5]; week 0 (baseline),5
same,"Skin tone, investigator score, mean",[5]; week 0 (baseline),5.5
same,"Texture, investigator score, mean",[5]; week 0 (baseline),4.2
same,"Dyschromia, investigator score, mean",[5]; week 12,4.8
same,"Radiance, investigator score, mean",[5]; week 12,4.6
same,"Skin tone, investigator score, mean",[5]; week 12,4.7
same,"Texture, investigator score, mean",[5]; week 12,4.2
same,"Improved the evenness of my skin tone, % Agree or Somewhat Agree",[6]; Week 4,76.19%
same,"Improved the overall appearance of my skin, % Agree or Somewhat Agree",[6]; Week 4,76.19%
same,"Lessened the appearance of the dark spots and discoloration on my skin, % Agree or Somewhat Agree",[6]; Week 4,80.95%
same,"Made me feel more confident in the way my skin looks, % Agree or Somewhat Agree",[6]; Week 4,61.90%
same,"Made my skin look brighter and more radiant, % Agree or Somewhat Agree",[6]; Week 4,66.67%
same,"Made my skin look healthier, % Agree or Somewhat Agree",[6]; Week 4,61.90%
same,"Made my skin look more youthful, % Agree or Somewhat Agree",[6]; Week 4,42.86%
same,"Improved the overall appearance of my skin, % Agree or Somewhat Agree",[6]; Week 8,85.71%
same,"Lessened the appearance of the dark spots and discoloration on my skin, % Agree or Somewhat Agree",[6]; Week 8,80.95%
same,"Made me feel more confident in the way my skin looks, % Agree or Somewhat Agree",[6]; Week 8,61.90%
same,"Made my skin look brighter and more radiant, % Agree or Somewhat Agree",[6]; Week 8,66.67%
same,"Made my skin look healthier, % Agree or Somewhat Agree",[6]; Week 8,71.43%
same,"Made my skin look more youthful, % Agree or Somewhat Agree",[6]; Week 8,71.43%
same,"Improved the evenness of my skin tone, % Agree or Somewhat Agree",[6]; Week 12,85.71%
same,"Improved the overall appearance of my skin, % Agree or Somewhat Agree",[6]; Week 12,85.71%
same,"Lessened the appearance of the dark spots and discoloration on my skin, % Agree or Somewhat Agree",[6]; Week 12,76.19%
same,"Made me feel more confident in the way my skin looks, % Agree or Somewhat Agree",[6]; Week 12,61.90%
same,"Made my skin look brighter and more radiant, % Agree or Somewhat Agree",[6]; Week 12,90.48%
same,"Made my skin look healthier, % Agree or Somewhat Agree",[6]; Week 12,85.71%
same,"Made my skin look more youthful, % Agree or Somewhat Agree",[6]; Week 12,71.43%
same,"Improved the evenness of my skin tone, % Agree or Somewhat Agree",[6]; Week &,85.71%
C/C=C1/[C@H](O[C@@H]2O[C@H](CO)[C@@H](O)[C@H](O)[C@H]2O)OC=C(C(=O)OC)[C@H]1CC(=O)OCCc1ccc(O)c(O)c1 [Oleuropein],melanocyte morphology / survival on daily inspection,[7],nearly all melanocytes were dead 72 hours post-initial dosing
